Test results as given in the NIST ThermoML archive (doi:10.1021/je800110r).
Values joined by “and” are separate entries in the source; they are usually repeats but may differ in a detail not shown here. Equal entries are not always repeated.

Details: Liquid, Vibrating tube method

CCCCCCCCCC [decane]
Details	mass density
313.16 K, 749 kPa	715.1 kg/m3
313.16 K, 764 kPa	715.3 kg/m3
313.16 K, 784 kPa	715.3 kg/m3
313.16 K, 800 kPa	715.3 kg/m3
313.16 K, 813 kPa	715.2 kg/m3
313.16 K, 837 kPa	715.4 kg/m3
313.16 K, 852 kPa	715.2 kg/m3
313.16 K, 870 kPa	715.4 kg/m3
313.16 K, 891 kPa	715.4 kg/m3
313.16 K, 916 kPa	715.3 kg/m3
313.16 K, 938 kPa	715.3 kg/m3
313.16 K, 958 kPa	715.5 kg/m3
313.16 K, 978 kPa	715.4 kg/m3
323.14 K, 3098 kPa	709.7 kg/m3
323.14 K, 3118 kPa	709.8 kg/m3
323.14 K, 3138 kPa	709.6 kg/m3
323.14 K, 3156 kPa	709.6 kg/m3
323.14 K, 3176 kPa	709.7 kg/m3
323.14 K, 3200 kPa	709.7 kg/m3
323.14 K, 3221 kPa	709.8 kg/m3
323.14 K, 3243 kPa	709.8 kg/m3
323.14 K, 3271 kPa	709.9 kg/m3
323.14 K, 3297 kPa	709.9 kg/m3
323.14 K, 3322 kPa	709.9 kg/m3
323.14 K, 3345 kPa	709.8 kg/m3
323.14 K, 3372 kPa	709.8 kg/m3
323.14 K, 3400 kPa	710 kg/m3
323.14 K, 3430 kPa	709.9 kg/m3
323.14 K, 3451 kPa	710 kg/m3
323.14 K, 3477 kPa	710 kg/m3
323.14 K, 3502 kPa	710.1 kg/m3
323.14 K, 3524 kPa	710.2 kg/m3
323.14 K, 3549 kPa	710.1 kg/m3
323.14 K, 3571 kPa	710.1 kg/m3
323.14 K, 3597 kPa	710.2 kg/m3
323.14 K, 3614 kPa	710.1 kg/m3
323.14 K, 3637 kPa	710.2 kg/m3
323.14 K, 3661 kPa	710.2 kg/m3
323.14 K, 3681 kPa	710.1 kg/m3
323.14 K, 3715 kPa	710.2 kg/m3
323.14 K, 3736 kPa	710.3 kg/m3
323.14 K, 3761 kPa	710.4 kg/m3
323.14 K, 3794 kPa	710.3 kg/m3
323.14 K, 3819 kPa	710.3 kg/m3
323.14 K, 3849 kPa	710.3 kg/m3
323.14 K, 3879 kPa	710.4 kg/m3
323.14 K, 3911 kPa	710.4 kg/m3
323.14 K, 3939 kPa	710.5 kg/m3
323.14 K, 3959 kPa	710.5 kg/m3
323.14 K, 3978 kPa	710.4 kg/m3
323.14 K, 4004 kPa	710.5 kg/m3
323.14 K, 4033 kPa	710.5 kg/m3
323.14 K, 4053 kPa	710.5 kg/m3
323.14 K, 4078 kPa	710.6 kg/m3
323.14 K, 4103 kPa	710.7 kg/m3
323.14 K, 4122 kPa	710.7 kg/m3
323.14 K, 4144 kPa	710.6 kg/m3
323.14 K, 4164 kPa	710.6 kg/m3
323.14 K, 4191 kPa	710.6 kg/m3
323.14 K, 4213 kPa	710.8 kg/m3
323.14 K, 4230 kPa	710.8 kg/m3
323.14 K, 4248 kPa	710.7 kg/m3
323.14 K, 4405 kPa	710.9 kg/m3
323.14 K, 4447 kPa	710.9 kg/m3
323.14 K, 4462 kPa	710.9 kg/m3
323.14 K, 4506 kPa	711 kg/m3
323.14 K, 4528 kPa	711 kg/m3
323.14 K, 4550 kPa	711 kg/m3
323.14 K, 4566 kPa	711 kg/m3
323.14 K, 4587 kPa	711 kg/m3
323.14 K, 4704 kPa	711.1 kg/m3
323.14 K, 4721 kPa	711.2 kg/m3
323.14 K, 4739 kPa	711.2 kg/m3
323.14 K, 4770 kPa	711.2 kg/m3
323.14 K, 4793 kPa	711.3 kg/m3
323.14 K, 4804 kPa	711.2 kg/m3
323.14 K, 4818 kPa	711.3 kg/m3
323.14 K, 4838 kPa	711.3 kg/m3
323.14 K, 4970 kPa	711.3 kg/m3
323.14 K, 5064 kPa	711.5 kg/m3
323.14 K, 5127 kPa	711.5 kg/m3
323.14 K, 5175 kPa	711.5 kg/m3
323.14 K, 5178 kPa	711.6 kg/m3
323.14 K, 5183 kPa	711.6 kg/m3
323.14 K, 5184 kPa	711.5 kg/m3
323.14 K, 5187 kPa	711.6 kg/m3
323.14 K, 5189 kPa	711.6 kg/m3
323.14 K, 5191 kPa	711.6 kg/m3
323.14 K, 5192 kPa	711.5 kg/m3 and 711.6 kg/m3
323.14 K, 5193 kPa	711.5 kg/m3
323.14 K, 5216 kPa	711.7 kg/m3
323.14 K, 5238 kPa	711.6 kg/m3
323.14 K, 5256 kPa	711.7 kg/m3
323.14 K, 5276 kPa	711.6 kg/m3
323.14 K, 5291 kPa	711.7 kg/m3
323.14 K, 5312 kPa	711.6 kg/m3
323.14 K, 5335 kPa	711.7 kg/m3
323.14 K, 5353 kPa	711.8 kg/m3
323.14 K, 5375 kPa	711.7 kg/m3
323.14 K, 5406 kPa	711.8 kg/m3
323.14 K, 5428 kPa	711.7 kg/m3
323.14 K, 5450 kPa	711.7 kg/m3
323.14 K, 5468 kPa	711.9 kg/m3
323.14 K, 5487 kPa	711.9 kg/m3
323.14 K, 5506 kPa	711.8 kg/m3
323.14 K, 5535 kPa	711.9 kg/m3
323.14 K, 5551 kPa	711.8 kg/m3
323.14 K, 5575 kPa	712 kg/m3
323.14 K, 5594 kPa	711.9 kg/m3
323.14 K, 5611 kPa	712 kg/m3
323.14 K, 5631 kPa	712 kg/m3
323.14 K, 5670 kPa	712 kg/m3
323.14 K, 5697 kPa	712.1 kg/m3
323.14 K, 5721 kPa	712.1 kg/m3
323.14 K, 5738 kPa	712.1 kg/m3
323.14 K, 5756 kPa	712 kg/m3
323.14 K, 5770 kPa	712 kg/m3
323.14 K, 5788 kPa	712 kg/m3
323.14 K, 5909 kPa	712.2 kg/m3
323.14 K, 5924 kPa	712.2 kg/m3
323.14 K, 5940 kPa	712.3 kg/m3
323.14 K, 5955 kPa	712.2 kg/m3
323.14 K, 5968 kPa	712.3 kg/m3
323.14 K, 5986 kPa	712.3 kg/m3
323.14 K, 6004 kPa	712.2 kg/m3
323.14 K, 6022 kPa	712.4 kg/m3
323.14 K, 6037 kPa	712.3 kg/m3
323.14 K, 6056 kPa	712.3 kg/m3
323.14 K, 6076 kPa	712.5 kg/m3
323.14 K, 6089 kPa	712.4 kg/m3
323.14 K, 6105 kPa	712.3 kg/m3
323.14 K, 6124 kPa	712.5 kg/m3
323.14 K, 6144 kPa	712.5 kg/m3
323.14 K, 6167 kPa	712.5 kg/m3
323.14 K, 6179 kPa	712.3 kg/m3
323.14 K, 6202 kPa	712.5 kg/m3
323.14 K, 6217 kPa	712.4 kg/m3
